Experimental data reported in patent US20060198882A1, “Stable liposomes or micelles comprising a sphinolipid and a peg-lipopolymer” (priority 2003, published 2006).

How the values were obtained:
[1] = Conversion of C6Cer in cell derived or fresh medium; assay type: in vitro ADME
[2] = tested on: C-26 colon carcinoma cells; assay: Cell uptake and metabolism of radiolabelled ceramide assemblies; assay type: cell-based, human
Experimental: C-26 colon carcinoma cells were seeded into six-well plates at density of 2.5×10^5 in 2 ml of complete RPMI-1640 medium supplemented with 10% FCS, antibiotics, and glutamine. The cells were allowed to grow for 48 hr and replaced with 1 ml of complete serum containing medium. […] The radioactive doses of ceramides and lipid (dpm/μmole) are described in Table 2C. After these predefined time periods cells were tripsinized and washed twice with PBS. Cell lipids, lipids of the medium and lipids of the wash fraction were extracted by the Bligh and Dyer procedure [E. G. Bligh and W. J. Dyer, Can. J. Biochem. Physiol. 37:[…] (1959)]. Briefly, chloroform, methanol, and DDW were added to the cells at a final ratio of 1:2:1 (by vol.), and incubated for 10 min at 45° C. Then the mixtures were centrifuged at […] for 5 min. The supernatants containing the lipids were taken and chloroform and DDW were added in order to reach the final volume ratio of chloroform: methanol:DDW of 1:1:1. Two phases were formed and well separated after centrifugation. The water/methanol rich upper phase was removed while the chloroform-rich lower phase which contains >99% of the lipids was washed once with synthetic upper phase composed of chloroform:methanol:DDW (6:94:96, by volume). The lipid-containing lower phase was dried under nitrogen stream and redissolved in chloroform: methanol (2:1, by vol.) ready for analysis.
The lipid mixture was applied to silica gel TLC plates and developed in the solvent system of chloroform:methanol: DDW (84:16:1,5, by vol.) and detected by Copper sulfate reagent. The TLC plates were photographed by the Fluor-S-Multyimiger (Bio-Rad, Hercules, Calif.). Migration of lipids from cells extracts, medium, and wash fractions was visualized in comparison to a different well established commercial markers. The retention factor RF (defined as the distance traveled by the compound divided by the distance traveled by the solvent) of various molecules are as follows: SPM-0.04, EPC or HSPC-0.1, DOTAP: 0.24, GalCer: 0.29-0.38, GluCer: 0.4, C6 Cer: 0.68, and C16 Cer: […].
The TLC plates were then subjected overnight to imaging plate and the radioactivity was measured by Bio-Imaging analyzer (FUJI BAS 1000, Japan) then the radioactive bands were scraped from the TLC plate, placed into the test tube containing scintillation medium Opti-Fluor (Packard Bioscience, Groningen, Netherlands) and the radioactivity was counted by a β-counter.
The uptake and metabolism of radiolabelled liposomal or free C6Cer were studied in C-26 colon carcinoma cells. Cells were incubated with either free ^14C6Cer (in ethanol) or with liposomal C6Cer. Total lipids were extracted and the level of uptake and metabolites were determined from cells and growth medium as described in Materials and Methods.

[3] = Critical aggregation concentration (CAC) by surface tension; assay type: physicochemical; conditions: pure water containing 0.3% ethanol, room temperature
Experimental: The critical aggregation concentration (CAC) of the ceramides is the concentration at which aggregation of monomers to an amphiphile assembly occurs. CAC of the C2, C6, and C16 ceramides was determined in filtered pure water containing 0.3% ethanol by measuring at room temperature surface tension as a function of ceramide concentration. The measurements were done using μThrougs Kibron System (Helsinki, Finland) which determine the surface tension at the air/water interface. The measurement at each concentration was repeated until a constant value of surface tension was reached [Zuidam, N. and Barenholz, Y., Supra (1997)]

SMILES | ceramide converted into C6 SPM ([1]; cell derived medium (taken from C26 cells)) | metabolic activity ([1]; fresh medium) | Cell uptake (%) of ^14C6Cer ([2]; 2 hr) | Cell uptake (nmole) of ^14C6Cer ([2]; 2 hr, 20 μM ceramide) | Cell uptake (%) of ^14C6Cer ([2]; 24 hr) | Cell uptake (nmole) of ^14C6Cer ([2]; 24 hr) | Cell uptake (%) of ^14C6Cer ([2]; 72 hr) | Cell uptake (nmole) of ^14C6Cer ([2]; 72 hr) | CAC (critical aggregation concentration) [3]
CCCCCCCCCCCCC/C=C/[C@@H](O)[C@H](CO)NC(=O)CCCCC [C6Cer, N-hexanoyl-D-erythro-sphingosine] | 9% | no metabolitic activity | 39.9% | 13.7 nmol | 93.7% | 34.5 nmol | 72% | 24.5 nmol | –
CCCCCCCCCCCCC/C=C/[C@@H](O)[C@H](CO)NC(C)=O [C2Cer, N-Acetyl-D-erythro-sphingosine] | – | – | – | – | – | – | – | – | 10^−6M
